These results are taken from patent US20020160988A1 (priority 2001, published 2002).

Broadly, the inhibition is the relative decrease from the control value, in per cent. A word on the Ki: it is a measure of affinity in units of concentration, obtained from inhibition or displacement. What is called LD50 is the dose at which mortality reaches 50%. A higher LD50 goes with lower toxicity. Broadly, the IC50 is the midpoint of a concentration-inhibition curve. The term logD denotes the decadic logarithm of the distribution of all forms, ionised or not, between an organic phase and buffer at a given pH. A higher logD goes with a more lipophilic compound.

The target of one series is COX II (sheep placenta) (Ovis aries, UniProt P79208). The experiment in a line: biochemical. Conditions: read-out: % Inhibition COX II.
For series [1], the target named is COX I (bovine seminal vesicles) (Bos taurus, UniProt O62664). The experiment in a line: biochemical. Conditions: read-out: % Inhibition COX I.
Series [2] concerns the target T1, recombinant human acetylcholineesterase (rHuAChE) (Homo sapiens, UniProt P22303). Conditions: for t½(ks): human, recombinant enzyme.
Series [3] relates to mice. Conditions: mouse, in vivo.
The subject of series [4] is mice. The settings on record: mouse, in vivo. This is another data set of the same source.
The next series can be described thus: in vivo. Conditions: mouse.
In series [5] the test system is carrageenan-induced rat paw edema. Conditions: in vivo.
A further series relates to CAR-induced brain edema. Further details: species or system rats. The settings on record: rat, in vivo.
Series [6] concerns the target T1, recombinant human acetylcholineesterase (rHuAChE). As to the kind of experiment: biochemical.
For series [7], the target named is T2, fetal bovine serum-AChE (FBS-AChE) (Bos taurus, UniProt P23795).
T2 sequence (P23795 31-613): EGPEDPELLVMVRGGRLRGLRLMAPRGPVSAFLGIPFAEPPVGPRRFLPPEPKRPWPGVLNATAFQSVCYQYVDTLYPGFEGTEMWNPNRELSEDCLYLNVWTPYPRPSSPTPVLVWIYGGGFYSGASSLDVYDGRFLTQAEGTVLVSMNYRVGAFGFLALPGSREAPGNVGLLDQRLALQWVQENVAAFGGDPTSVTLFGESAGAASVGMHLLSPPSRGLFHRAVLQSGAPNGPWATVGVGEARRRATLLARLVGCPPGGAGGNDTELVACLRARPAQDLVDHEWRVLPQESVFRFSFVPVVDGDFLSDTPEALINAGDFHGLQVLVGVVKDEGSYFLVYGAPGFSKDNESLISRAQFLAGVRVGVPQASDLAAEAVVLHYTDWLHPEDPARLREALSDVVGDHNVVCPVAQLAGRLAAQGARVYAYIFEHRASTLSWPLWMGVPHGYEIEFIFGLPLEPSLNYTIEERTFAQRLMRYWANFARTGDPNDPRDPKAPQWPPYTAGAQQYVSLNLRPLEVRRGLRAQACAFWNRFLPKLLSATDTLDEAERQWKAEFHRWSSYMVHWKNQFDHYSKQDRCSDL
The experiment in a line: biochemical.

The target of series [8] is T3, human plasma butyrylcholinesterase (HuBChE) (Homo sapiens, UniProt P06276). As to the kind of experiment: biochemical.
Series [9] addresses T2, fetal bovine serum-AChE (FBS-AChE). The settings on record: for t½(ks): bovine, serum.
The next series is described as follows: physchem. Conditions: pH 7.4.
The target of series [10] is T3, human plasma butyrylcholinesterase (HuBChE). Conditions: for t½(ks): human, plasma.
Another series has as its system whole blood ChE. Further details: species or system mice. The settings on record: mouse, in vivo, 0.13 mg/kg.

Read-outs that look alike come from different tables or passages of the source.

T1 sequence (P22303 32-614): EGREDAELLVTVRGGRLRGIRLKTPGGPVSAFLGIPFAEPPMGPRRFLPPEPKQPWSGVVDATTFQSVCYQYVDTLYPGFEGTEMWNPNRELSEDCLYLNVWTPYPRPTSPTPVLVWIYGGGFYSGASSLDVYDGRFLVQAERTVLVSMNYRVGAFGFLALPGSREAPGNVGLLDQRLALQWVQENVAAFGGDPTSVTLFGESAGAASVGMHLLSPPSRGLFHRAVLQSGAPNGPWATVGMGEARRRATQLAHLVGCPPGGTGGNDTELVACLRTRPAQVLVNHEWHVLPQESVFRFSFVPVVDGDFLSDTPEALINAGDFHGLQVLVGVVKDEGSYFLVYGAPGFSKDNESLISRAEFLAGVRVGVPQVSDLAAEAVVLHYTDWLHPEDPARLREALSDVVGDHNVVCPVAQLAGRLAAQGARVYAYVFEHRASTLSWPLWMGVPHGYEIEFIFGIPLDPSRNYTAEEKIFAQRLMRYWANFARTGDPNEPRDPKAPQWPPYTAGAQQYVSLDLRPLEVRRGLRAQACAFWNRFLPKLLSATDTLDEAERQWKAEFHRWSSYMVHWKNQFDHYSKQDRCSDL
T3 sequence (P06276 29-602): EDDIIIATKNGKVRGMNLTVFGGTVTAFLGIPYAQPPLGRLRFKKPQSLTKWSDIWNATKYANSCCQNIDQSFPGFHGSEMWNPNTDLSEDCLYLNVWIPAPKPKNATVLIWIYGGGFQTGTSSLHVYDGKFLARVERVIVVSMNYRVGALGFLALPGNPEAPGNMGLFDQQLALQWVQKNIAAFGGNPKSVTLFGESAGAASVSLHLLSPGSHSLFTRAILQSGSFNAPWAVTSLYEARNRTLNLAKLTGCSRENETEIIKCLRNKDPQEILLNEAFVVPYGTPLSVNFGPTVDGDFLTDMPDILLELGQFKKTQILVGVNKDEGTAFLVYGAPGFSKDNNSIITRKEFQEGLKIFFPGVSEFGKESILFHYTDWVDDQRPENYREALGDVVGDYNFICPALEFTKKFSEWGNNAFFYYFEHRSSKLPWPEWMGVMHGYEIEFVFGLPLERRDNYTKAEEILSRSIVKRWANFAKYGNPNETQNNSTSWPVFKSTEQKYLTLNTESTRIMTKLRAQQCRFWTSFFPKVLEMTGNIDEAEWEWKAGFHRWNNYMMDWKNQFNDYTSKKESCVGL
COX II (sheep placenta), sequence (P79208 17-603): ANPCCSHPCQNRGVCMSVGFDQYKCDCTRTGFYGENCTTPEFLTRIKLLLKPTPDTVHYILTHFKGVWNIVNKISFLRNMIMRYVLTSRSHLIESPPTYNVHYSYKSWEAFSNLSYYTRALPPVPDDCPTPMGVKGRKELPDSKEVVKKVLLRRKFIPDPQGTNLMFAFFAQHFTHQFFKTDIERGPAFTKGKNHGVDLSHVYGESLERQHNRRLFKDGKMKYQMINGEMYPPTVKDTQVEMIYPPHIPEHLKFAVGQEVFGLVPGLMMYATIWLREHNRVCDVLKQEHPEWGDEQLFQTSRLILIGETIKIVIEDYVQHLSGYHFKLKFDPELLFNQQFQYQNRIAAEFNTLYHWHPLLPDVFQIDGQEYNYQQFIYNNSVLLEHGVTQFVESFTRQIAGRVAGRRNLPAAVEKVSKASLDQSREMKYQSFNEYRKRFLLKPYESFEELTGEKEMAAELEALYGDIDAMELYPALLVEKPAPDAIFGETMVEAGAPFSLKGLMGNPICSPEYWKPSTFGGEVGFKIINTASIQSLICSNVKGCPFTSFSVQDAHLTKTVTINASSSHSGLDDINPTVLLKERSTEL
COX I (bovine seminal vesicles), sequence (O62664 25-600): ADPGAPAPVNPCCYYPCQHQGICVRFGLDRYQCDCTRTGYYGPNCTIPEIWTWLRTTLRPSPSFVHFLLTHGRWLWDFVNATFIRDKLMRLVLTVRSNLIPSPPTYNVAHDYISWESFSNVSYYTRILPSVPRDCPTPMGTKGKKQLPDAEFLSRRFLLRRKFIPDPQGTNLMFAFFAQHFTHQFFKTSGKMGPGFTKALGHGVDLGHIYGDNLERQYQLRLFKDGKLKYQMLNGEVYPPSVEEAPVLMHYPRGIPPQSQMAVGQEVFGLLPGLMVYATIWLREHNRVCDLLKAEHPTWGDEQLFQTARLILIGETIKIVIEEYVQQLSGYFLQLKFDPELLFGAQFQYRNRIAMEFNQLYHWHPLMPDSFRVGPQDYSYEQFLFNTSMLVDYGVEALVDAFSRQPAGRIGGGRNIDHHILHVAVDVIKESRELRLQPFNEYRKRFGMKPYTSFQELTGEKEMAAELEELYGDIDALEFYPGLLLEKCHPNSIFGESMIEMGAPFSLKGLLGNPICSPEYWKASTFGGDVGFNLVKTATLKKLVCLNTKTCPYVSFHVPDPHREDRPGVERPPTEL

For `COc1ccc2cc([C@H](C)C(=O)O)ccc2c1` [NAPRO, naproxen], the inhibition at 1 µM at COX II (sheep placenta) was 85%; in [1] it was 37%.

With “3-Dimethylcarbamoyl-1-{7-[2-(4-isobutyl-phenyl)-propionylamino]-heptyl}-pyridinium bromide [IBU-Am-PH]”, in series [2], the Ki is 0.047 µM, the “K′” value is 0.13 min⁻¹, the “ki (bimolecular rate constant)” value was 2.8 × 10^6 M^−1m^−1 and the “ks × 10^3” value is reported as 27 minutes^−1.

On to `CCN(C)C(=O)Oc1cccc([C@H](C)N(C)C)c1` [EXELON], for which, in the series with mice [3], the “Therapeutic Index (TI = LD50/ED50)” value is 12.5.

Consider `CNC1(C)C2CCC(C2)C1(C)C` (stereo not shown) [mecamylamine], for which the “time of maximal IBU-PO-induced hypothermia after pretreatment” value in the series with mice [4] is 60 min.

Regarding `CC(C)Cc1ccc(C(C)C(=O)O)cc1` (stereo not shown) [IBU, ibuprofen], the LD50 in “in vivo” (im) is more than 100 mg/kg. For the same molecule, the “edema level (% EDEMA) after treatment” value in series [5] is “about 30%”. For the same molecule, the “brain % water content” value in the series on CAR-induced brain edema is reported as 83%.

As for `COC(=O)c1cccnc1` [MN, methyl nicotinate], the IC50 in series [6] is more than 100 µM. Besides, in series [2], the “mode of AChE inhibition” value is “reversible inhibition of AChE”.

Take `Nc1c2c(nc3ccccc13)CCCC2` [TACRINE]: the “Therapeutic Index (TI = LD50/ED50)” value in the series on mice [3] is 3.5.

Take `COc1ccc2c(c1)c(CC(=O)O)c(C)n2C(=O)c1ccc(Cl)cc1` [INDO, indomethacin]: the LD50 in “in vivo” (ip) is 12.4 mg/kg. Further, in series [5], the “edema level (% EDEMA) after treatment” value is on record as “about 30%”.

On to `CC(C)Cc1ccc(C(C)C(=O)OCCCCCCCCN2CCC=C(OC(=O)N(C)C)C2)cc1` (stereo not shown) [IBU-4H-PO], for which the figures for the Ki in series [7], in series [6] and in [8] were 66 µM, 12 µM and 1.6 µM, respectively. For the same molecule, the LD50 in “in vivo” (ip) stood at 54.2 mg/kg. Moreover, the “K′” value in series [9] was 1.9 min⁻¹; in series [10] it was 0.19 min⁻¹; in series [2], 0.23 min⁻¹. The “ki (bimolecular rate constant)” value in [9] is 2.8 × 10^4 M^−1m^−1; in series [10], 1.2 × 10^5 M^−1m^−1; in series [2], 1.9 × 10^4 M^−1m^−1. Also, the entries for the “ks × 10^3” value in series [9], in series [10] and in series [2] were 20 minutes^−1, 0.9 minutes^−1 and 6.9 minutes^−1, respectively. The results for the “t½(ks)” value in series [9], in series [10] and in series [2] were 0.575 h, 13.2 h and 1.67 h, respectively. In the series “physchem”, this molecule had a logD of 2.

In “in vivo” (ip), `CC(=O)Oc1ccccc1C(=O)O` [ASPIRIN, aspirin] had an LD50 of more than 100 mg/kg.

As for `CN1[C@@H]2CC[C@H]1C[C@@H](OC(=O)C(CO)c1ccccc1)C2` (stereo partly shown) [atropine], the “effect of pretreatment on IBU-PO-induced hypothermia” value in the series with mice [4] is recorded as “partially reverses the hypothermia”.

Consider `CNC(=O)Oc1ccc2c(c1)[C@]1(C)CCN(C)[C@@H]1N2C` [physostigmine], for which the “Therapeutic Index (TI = LD50/ED50)” value with mice [3] was found to be 3.4.

For the molecule `COC(=O)C1=CCCN(C)C1` [Arecoline, arecoline], the half-inhibitory concentration (IC50) in [6] is more than 100 µM. Besides, the “mode of AChE inhibition” value in series [2] was “reversible inhibition of AChE”.

Regarding `CN(C)C(=O)Oc1ccc[n+](C)c1` [PYR, pyridostigmine], in the series on whole blood ChE, the ChE inhibition result is reported as “less than 20%” and the “duration time of ChE inhibition” value is 1 to 1.5 h. Moreover, the affinity in [7] corresponds to a Ki of 1.2 µM. Moreover, in “in vivo” (im), the median lethal dose (LD50) stood at 2.1 mg/kg. Further, in “in vivo” (ip), the LD50 turned out to be 5.1 mg/kg. In [9], the “K′” value is 0.31 min⁻¹, the “ki (bimolecular rate constant)” value is on record as 2.5 × 10^5 M^−1m^−1, the “ks × 10^3” value amounted to 10 minutes^−1 and the “t½(ks)” value is 1.15 h. Besides, in series [10], the “K′” value was 0.08 min⁻¹, the “ki (bimolecular rate constant)” value is listed as 7.3 × 10^4 M^−1m^−1, the “ks × 10^3” value was 7.1 minutes^−1 and the “t½(ks)” value turned out to be 1.62 h. In [2], the “K′” value was determined as 0.40 min⁻¹, the “ki (bimolecular rate constant)” value is 2.7 × 10^5 M^−1m^−1, the “ks × 10^3” value worked out at 9.2 minutes^−1 and the “t½(ks)” value was found to be 1.25 h.
